{
  "source": "patent US20100104622A1",
  "about": "“Ligand Targeted Nanocapsules for the delivery of RNAi and other Agents” (priority 2008, published 2010)",
  "origin": "cited, not measured here",
  "test_system": "advanced stage melanoma",
  "conditions": "melanoma patients",
  "data": [
    {"smiles": "COc1cccc2c1C(=O)c1c(O)c3c(c(O)c1C2=O)C[C@@](O)(C(=O)CO)C[C@@H]3O[C@H]1C[C@H](N)[C@H](O)[C@H](C)O1", "note": "[Doxorubicin]", "values": [
      {"measurement": "efficacy in advanced stage melanoma", "result": "essentially ineffective"}
    ]}
  ]
}
